Patent US8440710B2, “HSL inhibitors useful in the treatment of diabetes” (Hoffmann-La Roche Inc., priority 2009, dated 2013)

These compounds were tested against T1, human HSL (Homo sapiens, UniProt Q05469) (assay: Human Hormone-Sensitive Lipase (HSL) enzyme inhibition assay (colorimetric, DMPT substrate)). Settings: human full length HSL-His6, 2,3-dimercapto-1-propanol tributyrate substrate, 37° C. 20 minutes, absorbance at 405 nm; read-out: HSL hum IC50.
T1 construct: generate a full length human HSL ORF with a 3′-His6 tag; made in house; host or cells: High 5 insect cells (baculovirus, pFast-BAC)
T1 sequence (Q05469 1-1076): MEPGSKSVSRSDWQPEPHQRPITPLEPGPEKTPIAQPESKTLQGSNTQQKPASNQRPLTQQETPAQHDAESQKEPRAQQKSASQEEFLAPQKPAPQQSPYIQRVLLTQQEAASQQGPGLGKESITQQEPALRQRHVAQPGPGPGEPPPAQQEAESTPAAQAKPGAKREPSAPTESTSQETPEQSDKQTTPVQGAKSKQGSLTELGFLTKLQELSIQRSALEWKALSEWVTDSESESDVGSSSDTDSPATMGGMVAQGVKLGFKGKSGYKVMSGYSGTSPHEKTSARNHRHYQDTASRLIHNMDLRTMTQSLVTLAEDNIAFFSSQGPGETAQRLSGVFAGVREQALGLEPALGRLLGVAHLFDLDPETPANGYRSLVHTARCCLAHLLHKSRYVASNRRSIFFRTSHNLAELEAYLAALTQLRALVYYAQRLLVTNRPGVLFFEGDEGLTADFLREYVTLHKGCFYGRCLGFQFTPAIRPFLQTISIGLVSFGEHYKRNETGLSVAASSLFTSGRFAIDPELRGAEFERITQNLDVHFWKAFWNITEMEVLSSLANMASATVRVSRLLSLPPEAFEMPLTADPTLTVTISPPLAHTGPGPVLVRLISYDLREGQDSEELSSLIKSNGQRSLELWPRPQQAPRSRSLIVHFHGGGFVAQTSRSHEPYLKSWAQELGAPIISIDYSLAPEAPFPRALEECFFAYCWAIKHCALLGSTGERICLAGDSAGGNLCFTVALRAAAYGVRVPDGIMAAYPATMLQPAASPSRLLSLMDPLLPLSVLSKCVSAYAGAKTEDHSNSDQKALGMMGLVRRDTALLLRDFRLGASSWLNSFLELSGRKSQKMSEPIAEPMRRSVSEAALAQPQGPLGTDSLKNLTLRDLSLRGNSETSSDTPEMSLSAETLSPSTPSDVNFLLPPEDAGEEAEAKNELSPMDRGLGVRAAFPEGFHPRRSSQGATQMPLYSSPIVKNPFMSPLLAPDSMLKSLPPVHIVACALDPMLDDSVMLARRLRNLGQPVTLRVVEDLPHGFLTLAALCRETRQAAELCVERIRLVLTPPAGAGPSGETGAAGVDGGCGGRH
Assay type: biochemical
Procedure, shortened: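 Full-length human HSL with C-terminal His6, expressed in baculovirus-infected High 5 cells and Ni-NTA purified, was added (15 ug/ml stock) to 1.5 mM DMPT in 100 mM MOPS pH 7.2, 0.2 mg/ml fatty acid-free BSA containing compound. After 20 min at 37 °C, DTNB with SDS/Triton X-100 was added; A405 read after 15 min at RT.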
An IC50 of 10 nM was found for `O=C1N(c2ccc([C@@H](O)C(F)(F)F)cc2)CC[C@]12CC[C@@](O)(C1CCCC1)CC2` [Example 202, (5α,8α)-8-cyclopentyl-8-hydroxy-2-(4-((R)-2,2,2-trifluoro-1-hydroxyethyl)phenyl)-2-aza-spiro[4.5]decan-1-one] in this work.
An IC50 of 20 nM was found for `CC[C@]1(O)CC[C@]2(CCN(c3ccc(O[C@@H](C)C(F)(F)F)cc3)C2=O)CC1` [Example 165a, (5α,8α)-8-Ethyl-8-hydroxy-2-[4-((S)-2,2,2-trifluoro-1-methyl-ethoxy)-phenyl]-2-aza-spiro[4.5]decan-1-one] in this work.
An IC50 of 150 nM was found for `CCc1ccc(N2CC[C@]3(CC[C@@](O)(COC)CC3)C2=O)cc1` [Example 224, (5α,8α)-2-(4-Ethyl-phenyl)-8-hydroxy-8-methoxymethyl-2-aza-spiro[4.5]decan-1-one] in this work.
An IC50 of 440 nM was found for `C=CCC[C@]1(O)CC[C@@]2(CCN(c3ccc(OC(F)(F)F)cc3)C2=O)CC1` [Example 65, (5α,8β)-8-But-3-enyl-8-hydroxy-2-(4-trifluoromethoxy-phenyl)-2-aza-spiro[4.5]decan-1-one] in this work.
An IC50 of 20 nM was found for `CC(C)OC[C@]1(O)CC[C@]2(CCN(c3ccc([C@@H](O)C(F)(F)F)cc3)C2=O)CC1` [Example 159, (5α,8α)-8-Hydroxy-8-isopropoxymethyl-2-[4-((R)-2,2,2-trifluoro-1-hydroxy-ethyl)-phenyl]-2-aza-spiro[4.5]decan-1-one] in this work.
An IC50 of 30 nM was found for `CCC[C@]1(O)CC[C@]2(CCN(c3ccc(C4CC4)cc3)C2=O)CC1` [Example 75, (5α,8α)-2-(4-Cyclopropyl-phenyl)-8-hydroxy-8-propyl-2-aza-spiro[4.5]decan-1-one] in this work.
An IC50 of 40 nM was found for `COC[C@]1(O)CC[C@]2(CCN(c3ccc([C@@H](OC)C(F)(F)F)cc3)C2=O)CC1` [Example 139, (5α,8α)-8-Hydroxy-8-(methoxymethyl)-2-(4-((R)-2,2,2-trifluoro-1-methoxyethyl)phenyl)-2-aza-spiro[4.5]decan-1-one] in this work.
An IC50 of 60 nM was found for `CC1(COC[C@]2(O)CC[C@]3(CCN(c4ccc(OCC(F)(F)F)cc4)C3=O)CC2)COC1` [Example 260, (5α,8α)-8-Hydroxy-8-(3-methyl-oxetan-3-ylmethoxymethyl)-2-[4-(2,2,2-trifluoro-ethoxy)-phenyl]-2-aza-spiro[4.5]decan-1-one] in this work.
An IC50 of 100 nM was found for `CCCNC(=O)O[C@H]1CC[C@@]2(CCN(c3ccc(CC)cc3)C2=O)CC1` [Example 6, Propyl-carbamic acid [(5α,8β)-2-(4-ethyl-phenyl)-1-oxo-2-aza-spiro[4.5]dec-8-yl]ester] in this work.
An IC50 of 50 nM was found for `CCCS(=O)(=O)C[C@]1(O)CC[C@]2(CCN(c3ccc(OC(C)C)nc3)C2=O)CC1` [Example 335, (5α,8α)-8-Hydroxy-2-(6-isopropoxy-pyridin-3-yl)-8-(propane-1-sulfonylmethyl)-2-aza-spiro[4.5]decan-1-one] in this work.
An IC50 of 80 nM was found for `CCS(=O)(=O)C[C@]1(O)CC[C@]2(CCN(c3ccc(OCC(F)(F)F)cc3)C2=O)CC1` [Example 275, (5α,8α)-8-Ethanesulfonylmethyl-8-hydroxy-2-[4-(2,2,2-trifluoro-ethoxy)-phenyl]-2-aza-spiro[4.5]decan-1-one] in this work.
An IC50 of 20 nM was found for `CC(Oc1ccc(N2CC[C@]3(CC[C@@](O)(C4CC4)CC3)C2=O)cc1)C(F)(F)F` (stereo partly drawn) [Example 181, (5α,8α)-8-Cyclopropyl-8-hydroxy-2-[4-(2,2,2-trifluoro-1-methyl-ethoxy)-phenyl]-2-aza-spiro[4.5]decan-1-one] in this work.
An IC50 of 20 nM was found for `C[C@H](Oc1ccc(N2CC[C@]3(CC[C@@](O)(COCC(F)F)CC3)C2=O)cn1)C(F)(F)F` [Example 297, (5α,8α)-8-(2,2-Difluoro-ethoxymethyl)-8-hydroxy-2-[6-((S)-2,2,2-trifluoro-1-methyl-ethoxy)-pyridin-3-yl]-2-aza-spiro[4.5]decan-1-one] in this work.
An IC50 of 30 nM was found for `C=C(C)[C@]1(O)CC[C@]2(CCN(c3ccc(OCC(F)(F)F)cc3)C2=O)CC1` [Example 105, (5α,8α)-8-Hydroxy-8-(prop-1-en-2-yl)-2-(4-(2,2,2-trifluoroethoxy)phenyl)-2-aza-spiro[4.5]decan-1-one] in this work.
An IC50 of 50 nM was found for `CCC[C@]1(O)CC[C@@]2(CCN(c3ccc(OS(C)(=O)=O)cc3)C2=O)CC1` [Example 185, 4-((5α,8β))-8-hydroxy-1-oxo-8-propyl-2-aza-spiro[4.5]decan-2-yl)phenyl methanesulfonate] in this work.
An IC50 of 20 nM was found for `O=C1N(c2ccc(OCC(F)(F)F)cc2)CC[C@]12CC[C@](O)(COc1ccccn1)CC2` [Example 278, (5α,8β)-8-Hydroxy-8-(pyridin-2-yloxymethyl)-2-[4-(2,2,2-trifluoro-ethoxy)-phenyl]-2-aza-spiro[4.5]decan-1-one] in this work.
An IC50 of 42 nM was found for `CC[C@]1(O)CC[C@]2(CCN(c3ccc(OCC(F)(F)F)cc3)C2=O)CC1` [Example 88, (5α,8α)-8-Ethyl-8-hydroxy-2-[4-(2,2,2-trifluoro-ethoxy)-phenyl]-2-aza-spiro[4.5]decan-1-one] in this work.
An IC50 of 8 nM was found for `CC(C)(C)c1ccc(N2CC[C@]3(CC[C@@](O)(CS(=O)(=O)C(C)(C)C)CC3)C2=O)cc1` [Example 334, (5α,8α)-2-(4-tert-Butyl-phenyl)-8-hydroxy-8-(2-methyl-propane-2-sulfonylmethyl)-2-aza-spiro[4.5]decan-1-one] in this work.
An IC50 of 800 nM was found for `C[C@]1(O)CC[C@@]2(CCN(c3ccc(C4CC4)cc3)C2=O)CC1` [Example 74, (5α,8β)-2-(4-Cyclopropyl-phenyl)-8-hydroxy-8-methyl-2-aza-spiro[4.5]decan-1-one] in this work.
An IC50 of 130 nM was found for `O=C1N(c2ccc(OC(F)(F)F)cc2)CC[C@]12CC[C@@](O)(C1CC1)CC2` [Example 70, (5α,8α)-8-Cyclopropyl-8-hydroxy-2-(4-trifluoromethoxy-phenyl)-2-aza-spiro[4.5]decan-1-one] in this work.
An IC50 of 360 nM was found for `C[C@@H](Oc1ccc(N2CC[C@]3(CC[C@](O)(COCC(F)(F)F)CC3)C2=O)cc1)C(F)(F)F` [Example 284, (5α,8β)-8-Hydroxy-8-(2,2,2-trifluoro-ethoxymethyl)-2-[4-((R)-2,2,2-trifluoro-1-methyl-ethoxy)-phenyl]-2-aza-spiro[4.5]decan-1-one] in this work.
An IC50 of 10 nM was found for `O=C1N(c2ccc(CC(F)(F)F)cc2)CC[C@]12CC[C@@](O)(COCC(F)F)CC2` [Example 303, (5α,8α)-8-(2,2-Difluoro-ethoxymethyl)-8-hydroxy-2-[4-(2,2,2-trifluoro-ethyl)-phenyl]-2-aza-spiro[4.5]decan-1-one] in this work.
An IC50 of 20 nM was found for `C[C@@H](Oc1ccc(N2CC[C@]3(CC[C@@](O)(COCC(F)F)CC3)C2=O)cn1)C(F)(F)F` [Example 314, (5α,8α)-8-(2,2-Difluoro-ethoxymethyl)-8-hydroxy-2-[6-((R)-2,2,2-trifluoro-1-methyl-ethoxy)-pyridin-3-yl]-2-aza-spiro[4.5]decan-1-one] in this work.
An IC50 of 20 nM was found for `CCCC[C@]1(O)CC[C@]2(CCN(c3ccc(CCOC)cc3)C2=O)CC1` [Example 129, (5α,8α)-8-Butyl-8-hydroxy-2-[4-(2-methoxy-ethyl)-phenyl]-2-aza-spiro[4.5]decan-1-one] in this work.
An IC50 of 30 nM was found for `CCCC[C@]1(O)CC[C@]2(CCN(c3ccc(OC(F)(F)F)cc3)C2=O)CC1` [Example 66, (5α,8α)-8-Butyl-8-hydroxy-2-(4-trifluoromethoxy-phenyl)-2-aza-spiro[4.5]decan-1-one] in this work.
An IC50 of 900 nM was found for `C[C@]1(O)CC[C@@]2(CCN(c3ccc(CC(F)(F)F)cc3)C2=O)CC1` [Example 78, (5α,8β)-8-Hydroxy-8-methyl-2-[4-(2,2,2-trifluoro-ethyl)-phenyl]-2-aza-spiro[4.5]decan-1-one] in this work.
An IC50 of 340 nM was found for `CNC(=O)C[C@]1(O)CC[C@]2(CCN(c3ccc(OCC(F)(F)F)cc3)C2=O)CC1` [Example 158, 2-((5α,8α)-8-Hydroxy-1-oxo-2-(4-(2,2,2-trifluoroethoxy)phenyl)-2-aza-spiro[4.5]decan-8-yl)-N-methylacetamide] in this work.
An IC50 of 50 nM was found for `CC(C)(C)c1ccc(N2CC[C@]3(CC[C@@](O)(COc4cccnc4)CC3)C2=O)cc1` [Example 354, (5α,8α)-2-(4-tert-Butyl-phenyl)-8-hydroxy-8-(pyridin-3-yloxymethyl)-2-aza-spiro[4.5]decan-1-one] in this work.
